System: M. tuberculosis H37Rv growth inhibition
Assay: M. tuberculosis H37Rv growth inhibitors, H37Rv strain (AID 1626)
Details: for IC90: measured here: IC90 against H37Rv; for CC50: measured here: Vero cell cytotoxicity

| Structure (SMILES) | IC50 | IC90 | CC50 |
| --- | --- | --- | --- |
| CCN(CC)CCC(c1ccc2c(c1)OCO2)c1c(OC)cc(OC)c2c(-c3ccccc3)cc(=O)oc12 (configuration not stated) | 13.4 µM | 21.3 µM | 16.5 µM |
| Cc1[nH]c2ccccc2c1C(=O)COC(=O)c1ccc([N+](=O)[O-])s1 | – | – | 31.8 µM |
| Cc1ccc(C)c(N=Nc2ccc(O)c3ncccc23)c1 | 68.5 µM | > 100 µM | 1.85 µM |
| COc1ccc2[nH]c(=O)c(CN(C(=O)NC3CCCCC3)C3CCCCC3)cc2c1 | – | > 100 µM | > 40 µM |
| Cc1ccc(NC(=O)COc2ccc(-n3ccnc3)cc2)cc1Cl | 3.82 µM | 12.2 µM | – |
| O=C(Cn1cnc2c(nnn2-c2ccccc2)c1=O)N1CCC(Cc2ccccc2)CC1 | 5.79 µM | 6.58 µM | > 40 µM |
| CCOCC(=O)Nc1ccc(OCc2ccccc2)cc1 | 29.5 µM | > 100 µM | – |
| C=CCOc1ccc(CN(C)Cc2nc3cc(C(F)(F)F)ccc3c(=O)[nH]2)cc1 | 12.4 µM | > 100 µM | – |
| O/C(=C\c1nc2ccccc2nc1/C=C(\O)c1ccccc1)c1ccccc1 | – | > 100 µM | > 40 µM |
| Nc1c(C(=O)NCCc2ccccc2)c2nc3ccccc3nc2n1CCN1CCOCC1 | 18.6 µM | 25.4 µM | 31.4 µM |
| C1=C(CCNc2ncnc3c2[nH]c2ccccc23)CCCC1 | 1.52 µM | 1.72 µM | 5.24 µM |
| COc1ccc(-c2nnc(NC(=O)c3ccccc3C)o2)cc1 | 0.944 µM | > 100 µM | > 40 µM |
| COc1ccccc1OC(=O)CCN1c2ccccc2Sc2ccccc21 | 11.8 µM | 17.5 µM | – |
| Clc1ccc2c(c1)C1=C(C(c3ccncc3)O2)C(c2ccc(Br)cc2)n2ncnc2N1 (configuration not stated) | 2.91 µM | 3.29 µM | > 40 µM |
| CC(C)N1CCC2(CC1)N=C(c1ccc3c(c1)OCO3)CC(c1cc(Cl)ccc1O)N2 (configuration not stated) | 8.26 µM | 12.4 µM | 12.5 µM |
| COc1ccc2nc(SCC(=O)Nc3ccc4c(c3)CCC4)[nH]c2c1 | 15.6 µM | > 100 µM | – |
| CCOC(=O)c1ccc(NC(=O)CCc2nc(-c3ccccc3)no2)cc1 | 2.32 µM | > 100 µM | > 40 µM |
| COc1cc(/C=C/C(=O)c2c(O)n(CCc3ccccc3)c(=O)[nH]c2=O)ccc1O | 7.57 µM | 11.3 µM | 20.2 µM |
| CCCCOc1ccc(NC(=O)C2CC=CCC2C(=O)O)cc1 (configuration not stated) | 75.7 µM | > 100 µM | – |
| CCCCOC(=O)c1ccc(NC(=O)C(=O)NCCN(C)C)cc1 | 14.9 µM | > 100 µM | – |
| Nc1nc(-c2cccc(F)c2)cs1 | 11.2 µM | > 100 µM | – |

| Structure (SMILES) | IC50 | IC90 | CC50 |
| --- | --- | --- | --- |
| Cc1oc2c(c1C(=O)Nc1cccc3ccccc13)CCCC2 | 3.58 µM | 7.71 µM | – |
| CCOC(=O)C(C(=O)OCC)C1N=C(N)N=C2Oc3ccccc3N21 (configuration not stated) | 17.1 µM | 36.7 µM | – |
| Cc1cc(Oc2ccc(Cl)cc2)nc(-c2ccccn2)n1 | 14.5 µM | > 100 µM | 21.1 µM |
| CCc1cc2cc(C(=O)Nc3ccc(F)cc3)sc2s1 | 0.512 µM | 0.79 µM | – |
| O=C1Nc2ccccc2/C1=C/C(=O)c1cccs1 | 4.39 µM | 26.1 µM | 33.7 µM |
| Fc1ccc(-c2nnc(CSc3nnc(-c4cccs4)o3)o2)cc1 | – | > 100 µM | – |
| CCc1ccc2c(c1)/C(=C/C(=O)c1cccs1)C(=O)N2 | 3.06 µM | 12.2 µM | 18.9 µM |
| COc1cc(CNCc2ccccn2)ccc1OCc1ccc(Cl)c(Cl)c1 | 5.63 µM | 7.7 µM | > 40 µM |
| CCSCc1nnc(SCC(=O)Nc2cccc(SC)c2)n1C | 43.5 µM | > 100 µM | – |
| COc1cccc(-c2nnc(SCC(=O)Nc3cc(C)on3)o2)c1 | 5.8 µM | 8.52 µM | > 40 µM |
| Fc1cccc(-c2cc3nc(-c4ccccc4)cc(N4CCC5(CC4)OCCO5)n3n2)c1 | – | > 100 µM | – |
| COc1ccccc1/C=C/C(=O)c1ccc(NC(C)=O)cc1 | – | – | 22.8 µM |
| Cc1ccc(NC(=O)/C=C/c2ccc([N+](=O)[O-])s2)cc1 | 45.9 µM | > 100 µM | > 40 µM |
| OC(CNCCc1ccc(C(F)(F)F)cc1)COc1cccc2ccccc12 (configuration not stated) | 5.71 µM | 6.42 µM | 13.7 µM |
| CCCOc1ccc(-c2nc(C#N)c(NCCCn3ccnc3)o2)cc1 | 15 µM | > 100 µM | > 40 µM |
| O=C(CSc1ncn[nH]1)Nc1ccc(Br)cc1F | 29.5 µM | > 100 µM | > 40 µM |
| C=CCn1c(COc2ccc3c(c2)CCCC3)nnc1SCC(=O)Nc1cccc(SC)c1 | – | > 100 µM | – |
| COc1ccc2ncc(OC(C)=O)cc2c1 | – | > 100 µM | – |
| CCCCOC(=O)Nc1ccc(C(=O)OCCC)cc1 | 2.34 µM | > 100 µM | – |
| COc1ccc(/C=C/C(=O)c2ccc(C)c([N+](=O)[O-])c2)cc1O | – | > 100 µM | 34.8 µM |
| COc1ccc(C(=O)CNc2ccc3ccccc3c2)cc1 | 4.74 µM | > 100 µM | – |

— PubChem BioAssay AID1626 (SRMLSC, 2009)
